For 15 compounds, IC50 results are on record in patent US20100298377A1, “NOVEL SUBSTITUTED INDAZOLES, THE PREPARATION THEREOF AND USE OF SAME IN THERAPEUTICS” (SANOFI-AVENTIS, priority 2007, published 2010).

The assay concerns the target AKT1 (Homo sapiens, UniProt P31749, S473D). The assay can be described thus: Determination of the IC50 for AKT1 (HTRF). The note with it: AKT1 without PH domain, activated by PDK1. Type of assay: biochemical. The procedure: Determination of the IC50 for AKT1
The inhibitory potential of the compounds is evaluated by HTRF, a time-resolved fluorescence technique based on non-radiative energy transfer (FRET). […] This phosphorylation allows the kinase activity of AKT1 to be activated.
Starting with a 10 mM solution of inhibitors, 3 μl are taken and placed in a 96-well polypropylene plate containing 27 μl of 100% DMSO. The various test compounds are diluted in cascade by taking 15 μl of compound, to which are added 30 μl of 100% DMSO.
The various reaction components are added in the following manner:
Next, 10 μl of the inhibitor solution are added. Finally, the reaction is initiated by adding 10 μl of a solution containing both 100 μM of ATP and 10 μM of biotinylated peptide. The sequence of this peptide is as follows: biot-[…] (reference Neosystem SP000560). The plate is then covered with a plastic film, agitated and finally incubated at RT for 30 minutes. […] After incubation overnight at 4° C., the plate is read using an Ultra evolution spectrophotometer from Tecan. […] All the tests are performed in duplicate and the mean of the two tests is calculated.
For each point, a delta F is calculated in the following manner:
R(Ratio)=counts665 nm/counts620 nm
ΔF % is calculated by the Tecan Ultra Evolution machine.
Background: TR-FRET usually uses a lanthanide donor and a delayed reading to cut background.

pIC50: −log10 of the molar value. Bounds are passed on as bounds.

AKT1, sequence (P31749 118-480 S473D limits assumed): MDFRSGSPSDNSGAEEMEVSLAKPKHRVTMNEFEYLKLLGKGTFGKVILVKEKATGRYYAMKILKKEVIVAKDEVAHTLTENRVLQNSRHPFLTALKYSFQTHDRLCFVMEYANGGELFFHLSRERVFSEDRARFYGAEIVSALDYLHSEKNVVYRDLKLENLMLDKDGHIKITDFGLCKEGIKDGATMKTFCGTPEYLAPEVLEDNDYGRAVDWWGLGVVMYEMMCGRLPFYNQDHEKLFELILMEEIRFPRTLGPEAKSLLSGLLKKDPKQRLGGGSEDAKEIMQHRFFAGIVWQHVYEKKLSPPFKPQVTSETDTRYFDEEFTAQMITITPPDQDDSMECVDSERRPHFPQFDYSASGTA

Turning to `CCOC(=O)c1cccc(C(OC(=O)Nc2ccc3[nH]ncc3c2)[C@@H]2CCCCN2)c1` (stereo partly drawn) [Ex 41, Ethyl 3-{[(1H-Indazol-5-ylcarbamoyl)oxy][(2S)-piperid-2-yl]methyl}benzoate], the negative logarithm of the IC50 (pIC50) (usually −log10 of the IC50, conventionally taken in molar units) was 5.70 to 6.30.
As for `O=C(Nc1ccc2[nH]ncc2c1)OC(c1cccc(C(=O)Nc2ccccc2)c1)[C@@H]1CCCCN1` (stereo partly drawn) [Ex 43, [3-(Anilinocarbonyl)phenyl][(2S)-piperid-2-yl]methyl 1H-Indazol-5-ylcarbamate], the figure is 6.30 to 7.00.
As for `O=C(Nc1ccc2[nH]ncc2c1)O[C@@H](c1cccc(I)c1)[C@@H]1CCCCN1` [Ex 45, (S)-(3-Iodophenyl)[(2S)-piperid-2-yl]methyl 1H-indazol-5-ylcarbamate], the figure is greater than 7.00.
As for `O=C(Nc1ccc2[nH]ncc2c1)O[C@H](c1cc(F)cc(Cl)c1)[C@H]1CCCCN1` [Ex 39d, (R)-(3-Chloro-5-fluorophenyl)[(2R)-piperid-2-yl]methyl 1H-indazol-5-ylcarbamate], the figure is greater than 7.00; as for `CN1CCCCC1C(c1ccccc1)n1ccn(-c2ccc3[nH]ncc3c2)c1=O` [Ex 30, 1-(1H-Indazol-5-yl)-3-[(1-methylpiperid-2-yl)phenylmethyl]-1,3-dihydroimidazol-2-one((S,2S),(R,2R))], 6.30 to 7.00.
With `CN1CCCCC1C(NC(=O)Nc1ccc2[nH]nc(C#Cc3cccc(F)c3)c2c1)c1ccccc1` [Ex 22, 1-{3-[(3-Fluorophenyl)ethynyl]-1H-indazol-5-yl}-3-[(1-methylpiperid-2-yl)(phenyl)methyl]urea((S,2S),(R,2R))], the pIC50 was 6.30 to 7.00.
On to “(7-Fluoro-1H-indazol-5-yl)-(S)-(3-chloro-5-fluorophenyl)-(S)-piperid-2-ylmethyl carbamate [Ex 49]”, for which the pIC50 is greater than 7.00.
As for `O=C(Nc1ccc2[nH]nc(C#Cc3ccccc3)c2c1)N[C@@H](c1ccc(Cl)c(Cl)c1)[C@@H]1CCCCN1` [Ex 26, 1-{(S)-(3,4-Dichlorophenyl)[(2S)-piperid-2-yl]methyl}-3-[3-(phenylethynyl)-1H-indazol-5-yl]urea], the figure is 6.30 to 7.00; as for `CN1CCCCC1C(NC(=O)Nc1ccc2[nH]nc(NC(=O)c3ccccc3)c2c1)c1ccccc1` [Ex 28, N-[5-({[(1-Methylpiperid-2-yl)(phenyl)methyl]carbamoyl}amino)-1H-indazol-3-yl]benzamide((S,2S),(R,2R))], 6.30 to 7.00; as for `O=C(Nc1ccc2[nH]ncc2c1)O[C@@H](c1cc(F)cc(Cl)c1)[C@H]1CCCCN1` [Ex 39c, (S)-(3-Chloro-5-fluorophenyl)[(2R)-piperid-2-yl]methyl 1H-indazol-5-ylcarbamate], 6.30 to 7.00.
Take `CN(C(=O)NC(c1ccccc1)C1CCCCN1C)c1ccc2[nH]ncc2c1` [Ex 33, 1-(1H-Indazol-5-yl)-1-methyl-3-[(1-methylpiperid-2-yl)(phenyl)methyl]urea((S,2S),(R,2R))]: the pIC50 is 5.70 to 6.30.
Compound `CN1CCCCC1C(NC(=O)Nc1ccc2[nH]nc(-c3ccc(S(N)(=O)=O)cc3)c2c1)c1ccccc1` [Ex 12, 4-[5-({[(1-Methylpiperid-2-yl)(phenyl)methyl]carbamoyl}amino)-1H-indazol-3-yl]benzenesulfonamide((S,2S),(R,2R))] gave a pIC50 greater than 7.00.
Then `CN1CCCCC1C(c1ccccc1)N(C)C(=O)Nc1ccc2[nH]ncc2c1` [Ex 32, 3-(1H-Indazol-5-yl)-1-methyl-1-[(1-methylpiperid-2-yl)phenylmethyl]urea((S,2S),(R,2R))], with 5.70 to 6.30; and `CC(C)(C)c1ccc(NC(=O)c2cccc(C(OC(=O)Nc3ccc4[nH]ncc4c3)[C@@H]3CCCCN3)c2)cc1` (stereo partly drawn) [Ex 42, {3-[(4-tert-Butylphenyl)carbamoyl]phenyl}[(2S)-piperid-2-yl]methyl 1H-Indazol-5-yl carbamate], with 5.70 to 6.30.
As for `O=C(Nc1ccc2[nH]ncc2c1)O[C@@H](c1cccc(C(F)(F)F)c1)[C@@H]1CCCCN1` [Ex 44, (S)-(3-Trifluoromethylphenyl)[(2S)-piperid-2-yl]methyl 1H-indazol-5-ylcarbamate], the figure is greater than 7.00.
